Experimental data published in ChEMBL document CHEMBL1152465, “Comparative evaluation of the inhibitory activities of a series of pyrimidinedione congeners that inhibit human immunodeficiency virus types 1 and 2” (Antimicrob Agents Chemother, 2008).
The source made the active and inactive calls.

Assays:
[1] = Therapeutic index, ratio of TC50 human HeLa cells expressing CD4-LTR to EC50 for HIV1 entry inhibition in human HeLa cells expressing CD4-LTR; assay type: cell-based; settings: read-out: TI
[2] = Therapeutic index, ratio of TC50 for human CEM-SS cells to EC50 for HIV2 ROD infected in human CEM-SS cells; assay type: cell-based; settings: for selectivity ratio: CEM-SS cells, read-out: TI
[3] = system: Human immunodeficiency virus 1; assay: Antiviral activity against HIV1 infected in human CEM-SS cells assessed as inhibition of viral replication and virus-induced cytopathic effect by dose-response curve analysis; assay type: functional; settings: Human immunodeficiency virus 1, CEM-SS
[4] = system: Human immunodeficiency virus 1; assay: Antiviral activity against HIV1 infected in human HeLa cells expressing CD4-LTR assessed as inhibition of viral entry-related beta galactosidase expression treated for 2 hrs followed by drug wash out measured after 48 hrs by MAGI assay; assay type: functional, organism-based; settings: Human immunodeficiency virus 1, HeLa
[5] = Therapeutic index, ratio of TC50 for human CEM-SS cells to EC50 for HIV1 RF infected in human CEM-SS cells; assay type: cell-based; settings: read-out: TI
[6] = system: Human immunodeficiency virus 1; assay: Antiviral activity against HIV1 RF infected in human CEM-SS cells assessed as inhibition of virus-induced cytopathic effect by XTT assay; assay type: functional, organism-based; settings: Human immunodeficiency virus 1, RF
[7] = system: Human immunodeficiency virus 2; assay: Inhibition of HIV2 reverse transcriptase
[8] = target: Human immunodeficiency virus type 1 reverse transcriptase (Human immunodeficiency virus 1, UniProt Q72547, K103N); assay: Inhibition of HIV1 reverse transcriptase K103N mutant assessed as 32P-labeled GMP incorporation into nascent DNA strand
[9] = system: Human immunodeficiency virus 2; assay: Antiviral activity against HIV2 ROD infected in human CEM-SS cells assessed as inhibition of virus-induced cytopathic effect by XTT assay; assay type: functional, organism-based, ISOLATE ROD
[10] = Cytotoxicity against human HeLa cells expressing CD4-LTR by XTT assay; assay type: cell-based; settings: read-out: TC50 (the source's name)
[11] = system: Human immunodeficiency virus 2; assay: Inhibition of HIV2 reverse transcriptase assessed as 32P-labeled GMP incorporation into nascent DNA strand at highest concentration
[12] = system: Human immunodeficiency virus 2; assay: Antiviral activity against HIV2 assessed as inhibition of viral replication treated at time points after viral entry into host cells; assay type: functional, organism-based
[13] = target: Human immunodeficiency virus type 1 reverse transcriptase (Human immunodeficiency virus 1, UniProt Q72547); assay: Inhibition of wild type HIV1 reverse transcriptase assessed as 32P-labeled GMP incorporation into nascent DNA strand
[14] = Cytotoxicity against human CEM-SS cells by XTT assay; assay type: cell-based; settings: read-out: TC50 (the source's name)
[15] = system: Human immunodeficiency virus 2; assay: Antiviral activity against HIV2 assessed as inhibition of viral single round replication at early time point; assay type: functional, organism-based
[16] = Human immunodeficiency virus 2, ISOLATE ROD, CEM-SS, read-out: EC50

SMILES | selectivity ratio [1] | selectivity ratio [2] | EC99 [3] [µM] | EC50 [4] [µM] | selectivity ratio [5] | EC50 [6] [µM] | Activity [7] | IC50 [8] [µM] | EC50 [9, 16] [µM] | CC50 [10] [µM] | Activity [11] | Activity [12] | IC50 [13] [µM] | CC50 [14] [µM] | Activity [15] | TI ([2]; cem-ss) | EC50 ([9]; cem-ss)
CCc1c(Oc2cc(C)cc(C)c2)n(CC2CCCCC2)c(=O)[nH]c1=O | 555 | 28.6 | 1 | 0.23 | 5140 | 0.028 | inactive | 1.9 | 5.1 | 129 | inactive | inactive | 0.132 | 114 | Active |  | 
Cc1cc(C)cc(Sc2c(C(C)C)c(=O)[nH]c(=O)n2CCC2CC=CC2)c1 | 173 | 2.5 | 1 | 0.08 | 6530 | 0.002 | inactive | 149 | 6.2 | 14.2 | inactive | inactive | 0.254 | 12.8 | Active |  | 
Cc1cc(C)cc(C(=O)c2c(C(C)C)c(=O)[nH]c(=O)n2CCC2CC=CC2)c1 | 30 | 23 | 1 | 0.82 | 2390 | 0.015 | inactive | 1.7 | 0.6 | 24.9 | inactive | inactive | 0.011 | 13.9 | Active |  | 
CCc1c(Oc2ccccc2)n(CC2CC=CC2)c(=O)[nH]c1=O | 527 | 2.4 | 1 | 0.15 | 127 | 0.61 | inactive | 48.3 | 32 | 76.9 | inactive | inactive | 2.62 | 76.2 | Active |  | 
Cc1cc(C)cc(C(=O)c2c(C(C)C)c(=O)[nH]c(=O)n2CCC2CCCC2)c1 | 1460 |  | 1 | 0.014 | 1180 | 0.02 | inactive | 2.6 |  | 20.6 | inactive | inactive | 0.065 | 17.3 | Active | Not Active | Not Active
CCc1c(C(=O)c2ccccc2)n(CC2CC=CC2)c(=O)[nH]c1=O | 30 | 2.9 | 1 | 2.93 | 1440 | 0.0617 | inactive | 134 | 30.9 | 88.5 | inactive | inactive | 0.256 | 88.5 | Active |  | 
Cc1cc(C)cc(Oc2c(C(C)C)c(=O)[nH]c(=O)n2CC2CCCC2)c1 | 18 | 8.8 | 1 | 0.87 | 1050 | 0.019 | inactive | 1.14 | 1.3 | 15.5 | inactive | inactive | 0.157 | 11.8 | Active |  | 
CCc1c(C(=O)c2cc(C)cc(C)c2)n(CCC2=CCCC2)c(=O)[nH]c1=O | 421 | > 58.6 | 1 | 2.6 | 20100 | 0.055 | inactive | > 273 | 18.6 | 1100 | inactive | inactive | 2 | 1100 | Active |  | 
CCc1c(Oc2cc(C)cc(C)c2)n(CCC2C=CCC2)c(=O)[nH]c1=O (stereo not given) | 17600 | > 1650 | 1 | 0.06 | 570000 | 0.0019 | inactive | 1.96 | 0.7 | 1110 | inactive | inactive | 0.21 | 1100 | Active |  | 
CCc1c(Sc2cc(C)cc(C)c2)n(CC2CCCC2)c(=O)[nH]c1=O | 1590 | 70.4 | 1 | 0.14 | 3980 | 0.056 | inactive | 10.5 | 3.2 | 222 | inactive | inactive | 0.126 | 222 | Active |  | 
CCc1c(C(=O)c2cc(C)cc(C)c2)n(Cc2ccccc2)c(=O)[nH]c1=O | 10200 | 59.3 | 1 | 0.05 | 68300 | 0.016 | inactive | 2.3 | 0.4 | 562 | inactive | inactive | 0.025 | 24.6 | Active |  | 
Cc1cc(C)cc(C(=O)c2cc(=O)[nH]c(=O)n2CC2CC=CC2)c1 | 124 | 2.8 | 1 | 0.71 | 40 | 2.16 | inactive | > 308 | 30.9 | 87.3 | inactive | inactive | 119 | 87.3 | Active |  | 
Cc1cc(C)cc(Oc2c(C(C)C)c(=O)[nH]c(=O)n2CC2=CCCC2)c1 | 116 | 32.2 | 1 | 0.18 | 23500 | 0.001 | inactive | 2.2 | 0.5 | 20.5 | inactive | inactive | 0.032 | 16.4 | Active |  | 
CCc1c(Sc2cc(C)cc(C)c2)n(CC2CC=CC2)c(=O)[nH]c1=O | 148 | 38.2 | 1 | 0.26 | 9060 | 0.0066 | inactive | 2.4 | 0.5 | 38.9 | inactive | inactive | 0.21 | 18.3 | Active |  | 
Cc1cc(C)cc(Oc2c(C(C)C)c(=O)[nH]c(=O)n2CCC2C=CCC2)c1 (stereo not given) | 1650 | 21.5 | 1 | 0.009 | 3560 | 0.0059 | inactive | 1.5 | 0.4 | 14.2 | inactive | inactive | 0.027 | 7.6 | Active |  | 
